In patent publication US20150175599A1, “FAAH Inhibitors” (Ironwood Pharmaceuticals, Inc., priority 2010, published 2015):

Target: T1, FAAH (Rattus norvegicus, UniProt P97612)
T1 construct: For the assay of FAAH activity in rat brain membrane (RBM) homogenates; tissue Charles River (animals); host or cells: rat whole brain, membrane fraction
T1 sequence (P97612 1-579): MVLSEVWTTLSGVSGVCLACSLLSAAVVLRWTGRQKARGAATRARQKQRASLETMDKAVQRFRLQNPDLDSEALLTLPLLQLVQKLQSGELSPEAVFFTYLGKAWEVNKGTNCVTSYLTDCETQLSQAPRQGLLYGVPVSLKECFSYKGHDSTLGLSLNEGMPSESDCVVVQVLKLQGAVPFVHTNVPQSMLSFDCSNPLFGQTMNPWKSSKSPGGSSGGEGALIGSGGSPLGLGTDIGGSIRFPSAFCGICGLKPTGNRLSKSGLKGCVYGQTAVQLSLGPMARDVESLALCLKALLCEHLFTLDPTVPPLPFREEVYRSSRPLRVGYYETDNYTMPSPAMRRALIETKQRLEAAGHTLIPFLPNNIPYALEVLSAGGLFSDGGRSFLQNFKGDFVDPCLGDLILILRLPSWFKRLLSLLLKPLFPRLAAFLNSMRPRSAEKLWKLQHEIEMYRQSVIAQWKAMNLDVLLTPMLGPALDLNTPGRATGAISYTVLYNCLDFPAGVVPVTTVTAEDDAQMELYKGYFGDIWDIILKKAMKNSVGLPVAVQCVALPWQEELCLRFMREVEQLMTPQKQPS
Experiment: FAAH inhibition, rat brain membrane homogenate assay
Assay type: biochemical
Details: rat brain homogenate; average activity; read-out: Rat Brain Extract FAAH IC50
Method: Adult rats (Charles River CD strain, female, 200 g) were anaesthetized with isofluorane and rapidly decapitated. Each brain was quickly removed and chilled in tubes (3 brains per tube) on ice. About 25 mL of “homogenization buffer” (20 mM HEPES buffer, pH 7.0, with 1 mM MgCl2) was added to 15 to 20 g of brain. The brains were homogenized on ice for 1 minute using an Omni GLH homogenizer (Omni International, Marietta, Ga.). The homogenates were then transferred to three centrifuge tubes and centrifuged at 36,500 g for 20 minutes at 4° C. The supernatant was discarded and each pellet was re-suspended in 25 mL homogenization buffer. The re-suspended material was again centrifuged (36,500 g, 20 minutes at 4° C.). Pellets were combined by re-suspension in 10 mL of homogenization buffer and incubated in a 37° C. water bath for 15 minutes. The tubes were then placed on ice for 5 minutes followed by centrifugation at 36,500 g for 20 minutes at 4° C. The supernatant was discarded and the membrane pellets were then re-suspended in 40 mL of “re-suspension buffer” (50 mM Tris-HCl buffer, pH 7.4, containing 1 mM EDTA and 3 mM MgCl2). A Bradford Protein assay was performed to determine protein concentration. The protein was aliquotted into screw cap Cryo tubes each containing −400 μL, flash-frozen in liquid nitrogen and stored at −80° C. until used for the assay. A similar protocol was used to obtain brain membrane homogenates from mice
FAAH activity was assayed in the respective homogenates described herein (Rat brain, Mouse brain or Human brain) with certain of the exemplary compounds described above using a modification of the method of Omeir et al. (1995 Life Sci. 56:1999) and Fowler et al. (1997 J. Pharmacol. Exp. Ther. 283:729). For the assay of FAAH activity in rat brain membrane (RBM) homogenates, RBM homogenates (7 μg protein in 20 μL final volume of 10 mM Tris pH 6.5) were mixed with 180 μL of a mixture of the following: […] unlabelled anandamide (AEA), 0.03 Ci radio labeled anandamide [ethanolamine 1-^3H](40-60 Ci/mmol; product number ART-626, American Radiolabelled Chemicals, St. Louis, Mo.), 1 mg/mL Bovine Serum Albumin (fatty acid-free BSA, electrophoresis grade, Sigma, St. Louis, Mo.), 10 mM Tris-HCl (pH 6.5), and 1 mM EDTA in the presence and absence of test compounds (vehicle was DMSO at a final concentration of 1%) and incubated for 10 minutes at 37° C. Samples were placed on ice to terminate the reactions.
The ^3H-ethanolamine product and un-reacted ^3H-anandamide substrate were then separated by either: (1) using chloroform/methanol extraction or (2) passing the reaction mixture through a glass fiber filter containing activated charcoal. Samples were extracted with chloroform/methanol by adding 0.4 mL of chloroform/methanol (1:1 v/v), vigorously mixing the samples, and separating the aqueous and organic phases by centrifugation. Radioactivity (corresponding to FAAH-catalyzed breakdown of ^3H-anandamide) found in aliquots (0.2 mL) of the aqueous phase was determined by liquid scintillation counting with quench correction. IC50 values were determined as described by Jonsson et al. (2001 Br. J Pharmacol. 133:1263). Alternatively, reactions were purified using a modification of the solid-phase extraction method described by Wilson et al (2003 Anal. Biochem. 318: 270). This method was modified as follows: after reactions were incubated at 37° C. for 10 minutes and chilled on ice, the reaction mixtures were acidified by adding 10 μL of sodium phosphate solution[0.5M (pH 2.0)]. Next, 90 μL aliquots of the acidified reaction mixtures were applied to activated charcoal (that had been previously washed with methanol as described by Wilson et al. (supra)) containing 80 μL of water on top of a glass fiber filter, centrifuged, and the radioactivity in the eluate was counted as described previously by Wilson et al. (supra). […]

| Structure (SMILES) | IC50 [nM] |
| --- | --- |
| CNc1ccc2c(c1)c(C(=O)C(=O)Nc1ccnc(OC)c1)c(C)n2Cc1ccc(Cl)cc1 [Compound 9, 2-(1-(4-chlorobenzyl)-2-methyl-5-(methylamino)-1H-indol-3-yl)-N-(2-methoxypyridin-4-yl)-2-oxoacetamide] | < 100 |
| COc1cc(NC(=O)C(=O)c2c(C)n(Cc3ccc(Cl)cc3)c3ccc(OC(F)(F)F)cc23)ccn1 [Compound 23, 2-(1-(4-chlorobenzyl)-2-methyl-5-(trifluoromethoxy)-1H-indol-3-yl)-N-(2-methoxypyridin-4-yl)-2-oxoacetamide] | < 100 |
| COc1cc(NC(=O)C(=O)c2c(C)n(Cc3ccc(Cl)cn3)c3cc(OC)c(Cl)cc23)ccn1 [Compound 67, 2-(5-chloro-1-((5-chloropyridin-2-yl)methyl)-6-methoxy-2-methyl-1H-indol-3-yl)-N-(2-methoxypyridin-4-yl)-2-oxoacetamide] | < 100 |
| COc1cc(NC(=O)C(=O)c2c(C)n(Cc3ncc(Cl)cc3F)c3cc(F)c(OC)cc23)ccn1 [Compound 99, 2-(1-((5-chloro-3-fluoropyridin-2-yl)methyl)-6-fluoro-5-methoxy-2-methyl-1H-indol-3-yl)-N-(2-methoxypyridin-4-yl)-2-oxoacetamide] | < 100 |
| COc1cc(NC(=O)C(=O)c2c(C)n(Cc3ccc(Cl)cc3)c3ccc(N)cc23)ccn1 [Compound 20, 2-(5-amino-1-(4-chlorobenzyl)-2-methyl-1H-indol-3-yl)-N-(2-methoxypyridin-4-yl)-2-oxoacetamide] | < 100 |
| COc1ccc(Cn2c(C)c(C(=O)C(=O)Nc3ccnc(OC)c3)c3cc(C)ccc32)nc1 [Compound 69, 2-(1-((5-methoxypyridin-2-yl)methyl)-2,5-dimethyl-1H-indol-3-yl)-N-(2-methoxypyridin-4-yl)-2-oxoacetamide] | < 100 |
| COc1ccc(Cn2c(C)c(C(=O)C(=O)Nc3ccnc(OC)c3)c3cc(OC)ccc32)nc1 [Compound 43, 2-(5-methoxy-1-((5-methoxypyridin-2-yl)methyl)-2-methyl-1H-indol-3-yl)-N-(2-methoxypyridin-4-yl)-2-oxoacetamide] | < 100 |
| COc1cc(NC(=O)C(=O)c2c(C)n(Cc3ccc(Cl)cc3)c3ccc(OC(C)=O)cc23)ccn1 [Compound 1, 1-(4-chlorobenzyl)-3-(2-(2-methoxypyridin-4-ylamino)-2-oxoacetyl)-2-methyl-1H-indol-5-yl acetate] | < 100 |
| COc1ccc(Cn2c(C)c(C(=O)C(=O)Nc3ccnc(OC)c3)c3cc(OC)cnc32)nc1 [Compound 40, 2-(5-methoxy-1-((5-methoxypyridin-2-yl)methyl)-2-methyl-1H-pyrrolo[2,3-b]pyridin-3-yl)-N-(2-methoxypyridin-4-yl)-2-oxoacetamide] | < 100 |
| COc1cc(NC(=O)C(=O)c2c(C)n(Cc3ccc(Cl)cc3)c3ccc(C(F)(F)F)cc23)ccn1 [Compound 21, 2-(1-(4-chlorobenzyl)-2-methyl-5-(trifluoromethyl)-1H-indol-3-yl)-N-(2-methoxypyridin-4-yl)-2-oxoacetamide] | < 100 |
| COc1cc(NC(=O)C(=O)c2c(C)n(Cc3ccc(Cl)cc3)c3ccc(C#N)cc23)ccn1 [Compound 15, 2-(1-(4-chlorobenzyl)-5-cyano-2-methyl-1H-indol-3-yl)-N-(2-methoxypyridin-4-yl)-2-oxoacetamide] | < 100 |
| COc1ccc2c(c1)c(C(=O)C(=O)Nc1cc(OC)ncc1F)c(C)n2Cc1ccc(Cl)cc1 [Compound 54, 2-(1-(4-chlorobenzyl)-5-methoxy-2-methyl-1H-indol-3-yl)-N-(5-fluoro-2-methoxypyridin-4-yl)-2-oxoacetamide] | < 100 |
| COc1cc(NC(=O)C(=O)c2c(C)n(Cc3ccc(Cl)cn3)c3ccc(N(C)C)cc23)ccn1 [Compound 66, 2-(1-((5-chloropyridin-2-yl)methyl)-5-(dimethylamino)-2-methyl-1H-indol-3-yl)-N-(2-methoxypyridin-4-yl)-2-oxoacetamide] | < 100 |
| COc1cnc2c(c1)c(C(=O)C(=O)Nc1ccnc(OC)c1)c(C)n2Cc1ncc(Cl)cc1Cl [Compound 29, 2-(1-((3,5-dichloropyridin-2-yl)methyl)-5-methoxy-2-methyl-1H-pyrrolo[2,3-b]pyridin-3-yl)-N-(2-methoxypyridin-4-yl)-2-oxoacetamide] | < 100 |
| COc1cc(NC(=O)C(=O)c2c(C)n(Cc3ccc(Cl)cc3)c3ccc(OC)c(OC)c23)ccn1 [Compound 56, 2-(1-(4-chlorobenzyl)-4,5-dimethoxy-2-methyl-1H-indol-3-yl)-N-(2-methoxypyridin-4-yl)-2-oxoacetamide] | 1000 to 10000 |
| COc1cc(NC(=O)C(=O)c2c(C)n(Cc3ccc(Cl)cc3)c3ccc(Br)cc23)ccn1 [Compound 18, 2-(5-bromo-1-(4-chlorobenzyl)-2-methyl-1H-indol-3-yl)-N-(2-methoxypyridin-4-yl)-2-oxoacetamide] | < 100 |
| COc1cc(NC(=O)C(=O)c2c(C)n(Cc3ccc(Cl)cc3)c3ccc(N(C)C)cc23)ccn1 [Compound 17, 2-(1-(4-chlorobenzyl)-5-(dimethylamino)-2-methyl-1H-indol-3-yl)-N-(2-methoxypyridin-4-yl)-2-oxoacetamide] | < 100 |
| COc1cc(NC(=O)C(=O)c2c(C)n(Cc3ccc(Cl)cc3)c3ccncc23)ccn1 [Compound 37, 2-(1-(4-chlorobenzyl)-2-methyl-1H-pyrrolo[3,2-c]pyridin-3-yl)-N-(2-methoxypyridin-4-yl)-2-oxoacetamide] | < 100 |
| COc1cc(NC(=O)C(=O)c2c(C)n(Cc3ncc(Cl)cc3Cl)c3ccc(C)cc23)ccn1 [Compound 30, 2-(1-((3,5-dichloropyridin-2-yl)methyl)-2,5-dimethyl-1H-indol-3-yl)-N-(2-methoxypyridin-4-yl)-2-oxoacetamide] | < 100 |
| COc1cc(NC(=O)C(=O)c2c(C)n(Cc3ccc(Cl)cc3)c3ccc(OC)nc23)ccn1 [Compound 36, 2-(1-(4-chlorobenzyl)-5-methoxy-2-methyl-1H-pyrrolo[3,2-b]pyridin-3-yl)-N-(2-methoxypyridin-4-yl)-2-oxoacetamide] | < 100 |
| COc1cc(NC(=O)C(=O)c2c(C)n(Cc3ccc(Cl)cc3)c3ccc(COC(C)=O)cc23)ccn1 [Compound 10, (1-(4-chlorobenzyl)-3-(2-(2-methoxypyridin-4-ylamino)-2-oxoacetyl)-2-methyl-1H-indol-5-yl)methyl acetate] | < 100 |
| COc1ccc2c(c1)c(C(=O)C(=O)Nc1ccnc(O)c1)c(C)n2Cc1ccc(Cl)cc1 [Compound 50, 2-(1-(4-chlorobenzyl)-5-methoxy-2-methyl-1H-indol-3-yl)-N-(2-hydroxypyridin-4-yl)-2-oxoacetamide] | 1000 to 10000 |
